Measurements as given in patent US7723289B2, “PIF tetrapeptides” (BioIncept, LLC, priority 2003, dated 2010).
No end group written: not given here.

Experiments:
PBMC [1] = assay: FITC-labeled PIF binding to PBMC subpopulations (flow cytometry); design: species or system human; settings: 0.75 to 48.19 μM, 1 h room temperature
Procedure: Expression of PIF-1(15) (SEQ ID NO:1), receptor following PHA induced PBMC proliferation CD-4 T cells; CD-8 T cells; NK cell and B cells (unstimulated-top); (PHA stimulated-bottom). Flow cytometry analysis of PBMC following exposure to FITC sPIF-1(15) (SEQ ID NO:13) % expression was determined in PBMC subtypes before and after exposure to 1 ug/ml PHA for 24 hours.
(§1) Human PBMC were isolated by the Ficoll method. FITC-labeled nPIF-115 (SEQ ID NO: 1) and (FITC)-labeled scrPIF-1 (SEQ ID NO:5) and match-size irrelevant peptide (FITC)-labeled negative controls negPIF-1(15) (SEQ ID NO:11), were dissolved in PBS at concentrations ranging from 0.75 to 48.19 μM, and were incubated with 500,000 lymphocytes for 1 h at room temperature. The cells were washed 6 times with PBS and resuspended in 500 μl of the same buffer. T-cells and monocytes identification was performed in independent experiments by incubation with anti-CD3 and anti-CD14 antibody-phycoerithryn (PE) labeled. nPIF-115 (SEQ ID NO: 1) binding to PBMC was determined by flow cytometry. In addition, rosettes formed by T cell-platelets were detected by flow cytometry using anti-CD3 antibody-PE and anti-CD41a antibody-FITC (all antibodies were from Pharmingen Inc.).
Using flow cytometry fluoroscein-labeled sPIF-115 (SEQ ID NO: 13) binding to immune cells was examined on resting PBMC.

mice = assay: Intravaginal administration twice daily for seven days in mated mice; type: in vivo; settings: mice that conceived; implantation sites and viable embryos unaffected
Procedure: Female mice were mated with mice from the same strain. Subsequently, on day 0 (presumed day of mating) PIF-1scr in saline solution was administered intravaginally twice daily for seven days (Dr Alan Hoberman, Argus, Inc). The dose was 800 ug/day, 150 ug/ml or saline vehicle only (5 animals in each group). Subsequently, mice were sacrificed at day 12 of presumed gestation and Caesarean-sectioned. Corpora lutea, implantation sites and live and dead embryos were recorded.

PBMC [2] = assay: PIF and analogues on release of cytokines +/- platebound mAbCD3 (Table 4); type: cell-based; design: IL-1β / TNFa / IL-4 / IL-5 / IL-6 / IL-10 / GM-CSM / IFN-g: unit not given here
β-3 integrin = β-3 integrin expression by human endometrial epithelial cells (flow cytometry, immunocytochemistry); type: cell-based; settings: hEEC, 2-day culture, 1-500 nM
Procedure: Human endometrial tissues were digested and stromal and epithelial cells (hEEC) isolated and cultured with a fetal bovine serum (FBS)-enriched medium until confluent layers were obtained. After that the cells were cultured for two more days in a FBS free-medium followed by a further 2-day culture in the same medium containing PIF peptides (1-500 nM).
(§2) In addition, to compare the recovery of β-3 integrin expression with PIF effects described after cultured hEEC in a free-fetal bovine serum (FBS) medium some cells were cultured again in FBS-medium. […] PIF binding to epithelial cells was also examined. Binding was examined using MaBCD2 staining.

epithelial cells = assay: PIF binding to endometrial epithelial cells (MaBCD2 staining); design: species or system human; settings: compared to non-relevant IgG
Procedure: as §2

[3] = test system: donor lymphocytes and platelets; type: cell-based, human; settings: flow cytometric determination; data not shown
Text: The PIF assay, as disclosed in U.S. Pat. No. 5,646,003 to Barnea et al., entitled “Preimplantation Factor” issued Jul. 9, 1997, and in U.S. Pat. No. 5,981,198 to Barnea et al., entitled “Preimplantation Factor” granted Nov. 9, 1999, the disclosures of which are incorporated herein by reference in their entirety, may be used to measure the response of the immune system to pregnancy specific preimplantation factors. […] Lymphocyte-platelet rosettes result from the interaction of the T cell surface protein CD2 with its ligand CD58 expressed on the platelet membrane. Anti-CD2, by binding to the CD2 antigen on the T cells, inhibits their interaction with platelets.
as §1

GMRELQRSANK [negPIF-1(15), reference compound]
labeling of T cell-platelet rosettes by FITC-labeled peptide (PBMC [1]): not labeled

GRVDPSNKSMPKDIA [scrPIF-115, GRVDPSNKSMPKDIA]
toxic or teratogenic effects (mice): No toxic or teratogenic effects

MVRIK [sPIF-1(5)]
GM-CSM (PBMC [2]; C- (platebound mAbCD3), /1): 26.8
IFN-g (PBMC [2]; C- (platebound mAbCD3), /1): 98.2
IL-1β (PBMC [2]; C- (platebound mAbCD3), /1): 10.7
IL-2 (PBMC [2]; C- (platebound mAbCD3), /1): 19.2
IL-4 (PBMC [2]; C- (platebound mAbCD3), /1): 16.93
IL-5 (PBMC [2]; C- (platebound mAbCD3), /1): 0
IL-6 (PBMC [2]; C- (platebound mAbCD3), /1): 221.8
IL-8 (PBMC [2]; C- (platebound mAbCD3), /1): >5000
IL-10 (PBMC [2]; C- (platebound mAbCD3), /1): 68.5
TNFa (PBMC [2]; C- (platebound mAbCD3), /1): 142.8
GM-CSM (PBMC [2]; C- (platebound mAbCD3), /50): 20.7
IFN-g (PBMC [2]; C- (platebound mAbCD3), /50): 81.2
IL-1β (PBMC [2]; C- (platebound mAbCD3), /50): 5.3
IL-2 (PBMC [2]; C- (platebound mAbCD3), /50): 20.0
IL-4 (PBMC [2]; C- (platebound mAbCD3), /50): 0
IL-5 (PBMC [2]; C- (platebound mAbCD3), /50): 0
IL-6 (PBMC [2]; C- (platebound mAbCD3), /50): 178.9
IL-8 (PBMC [2]; C- (platebound mAbCD3), /50): >5000
IL-10 (PBMC [2]; C- (platebound mAbCD3), /50): 57.2
TNFa (PBMC [2]; C- (platebound mAbCD3), /50): 81.1
GM-CSM (PBMC [2]; U- (no mAbCD3), /1): 0
IFN-g (PBMC [2]; U- (no mAbCD3), /1): 0
IL-1β (PBMC [2]; U- (no mAbCD3), /1): 0
IL-2 (PBMC [2]; U- (no mAbCD3), /1): 0
IL-4 (PBMC [2]; U- (no mAbCD3), /1): 0
IL-5 (PBMC [2]; U- (no mAbCD3), /1): 0
IL-6 (PBMC [2]; U- (no mAbCD3), /1): 28.9
IL-8 (PBMC [2]; U- (no mAbCD3), /1): 763.6
IL-10 (PBMC [2]; U- (no mAbCD3), /1): 0
TNFa (PBMC [2]; U- (no mAbCD3), /1): 0
GM-CSM (PBMC [2]; U- (no mAbCD3), /50): 0
IFN-g (PBMC [2]; U- (no mAbCD3), /50): 0
IL-1β (PBMC [2]; U- (no mAbCD3), /50): 0
IL-2 (PBMC [2]; U- (no mAbCD3), /50): 0
IL-4 (PBMC [2]; U- (no mAbCD3), /50): 0
IL-5 (PBMC [2]; U- (no mAbCD3), /50): 0
IL-6 (PBMC [2]; U- (no mAbCD3), /50): 37.6
IL-8 (PBMC [2]; U- (no mAbCD3), /50): 786.4
IL-10 (PBMC [2]; U- (no mAbCD3), /50): 0
TNFa (PBMC [2]; U- (no mAbCD3), /50): 0
effect on cytokine secretion (PBMC [2]; following exposure to CD3Mab, dose dependent): mild

MVRIKPGSA [sPIF-1(9)]
increase in the expression of β-3-epithelial integrin (β-3 integrin): up to a four-fold increase
binding to epithelial cells (epithelial cells): highest binding
increase in the number of rosettes in the presence of the anti-CD2 antibody [3]: four-fold increase
GM-CSM (PBMC [2]; C- (platebound mAbCD3), /1): 14.3
IFN-g (PBMC [2]; C- (platebound mAbCD3), /1): 86.5
IL-1β (PBMC [2]; C- (platebound mAbCD3), /1): 4.8
IL-2 (PBMC [2]; C- (platebound mAbCD3), /1): 26.4
IL-4 (PBMC [2]; C- (platebound mAbCD3), /1): 0
IL-5 (PBMC [2]; C- (platebound mAbCD3), /1): 0
IL-6 (PBMC [2]; C- (platebound mAbCD3), /1): 177.6
IL-8 (PBMC [2]; C- (platebound mAbCD3), /1): >5000
IL-10 (PBMC [2]; C- (platebound mAbCD3), /1): 49.0
TNFa (PBMC [2]; C- (platebound mAbCD3), /1): 60.1
GM-CSM (PBMC [2]; C- (platebound mAbCD3), /50): 25.3
IFN-g (PBMC [2]; C- (platebound mAbCD3), /50): 132.1
IL-1β (PBMC [2]; C- (platebound mAbCD3), /50): 7.8
IL-2 (PBMC [2]; C- (platebound mAbCD3), /50): 33.7
IL-4 (PBMC [2]; C- (platebound mAbCD3), /50): 18.16
IL-5 (PBMC [2]; C- (platebound mAbCD3), /50): 0
IL-6 (PBMC [2]; C- (platebound mAbCD3), /50): 249.4
IL-8 (PBMC [2]; C- (platebound mAbCD3), /50): >5000
IL-10 (PBMC [2]; C- (platebound mAbCD3), /50): 105.0
TNFa (PBMC [2]; C- (platebound mAbCD3), /50): 160.8
GM-CSM (PBMC [2]; U- (no mAbCD3), /1): 0
IFN-g (PBMC [2]; U- (no mAbCD3), /1): 0
IL-1β (PBMC [2]; U- (no mAbCD3), /1): 0
IL-2 (PBMC [2]; U- (no mAbCD3), /1): 0
IL-4 (PBMC [2]; U- (no mAbCD3), /1): 0
IL-5 (PBMC [2]; U- (no mAbCD3), /1): 0
IL-6 (PBMC [2]; U- (no mAbCD3), /1): 40.8
IL-8 (PBMC [2]; U- (no mAbCD3), /1): 772.46
IL-10 (PBMC [2]; U- (no mAbCD3), /1): 0
TNFa (PBMC [2]; U- (no mAbCD3), /1): 0
GM-CSM (PBMC [2]; U- (no mAbCD3), /50): 0
IFN-g (PBMC [2]; U- (no mAbCD3), /50): 0
IL-1β (PBMC [2]; U- (no mAbCD3), /50): 0
IL-2 (PBMC [2]; U- (no mAbCD3), /50): 13.1
IL-4 (PBMC [2]; U- (no mAbCD3), /50): 0
IL-5 (PBMC [2]; U- (no mAbCD3), /50): 0
IL-6 (PBMC [2]; U- (no mAbCD3), /50): 38.7
IL-8 (PBMC [2]; U- (no mAbCD3), /50): 1480.2
IL-10 (PBMC [2]; U- (no mAbCD3), /50): 0
TNFa (PBMC [2]; U- (no mAbCD3), /50): 0
effect on IL6 and 8 (PBMC [2]; non-stimulated PBMC): stimulatory effect
